Laboratory results: US20240009105A1, “TETRAPEPTIDE AND COMPOSITIONS COMPRISING TETRAPEPTIDES” (THE BOOTS COMPANY PLC, priority 2020, published 2024)
Marks after values point to notes of the source that are not given here.

System: Fibrillin 1
Experiment: Fibrillin 1 expression in primary human dermal fibroblasts by immunofluorescence
Type: cell-based
Settings: HDF cells, 10 ppm peptide, cultured 5 days, immunofluorescence fibre density
Experimental: The synergistic activity of the tetrapeptides of the present invention were assessed to determine the expression of dermal extracellular protein Fibrillin 1 using immunofluorescence.
Primary Human dermal fibroblast (HDFs) cells were purchased from Promo Cell and came from a donor. Cells were grown in wells of 96-well black walled, clear bottomed, plates (as purchased from Pierce, Thermo Fisher). Cells were cultured in Human Dermal Fibroblast media (PromoCell) supplemented with Basic Fibroblast Growth Factor (recombinant human), 1 ng/ml and Insulin 5 μg/mL Cells were cultured for 5 days in the presence of the tetrapeptides combination of the present invention, changing media and peptides every 48 hours, followed by immunofluorescence assessment. At the time of treatment cells were at passage 3-4. After 5 days the media was discarded, and cells fixed with methanol. […]
The antibody binding to Fibrillin 1 fibres was visualised using a Nikon Eclipse 100 microscope fluorescence setting using an excitation lens for fluorescein isothiocyanate (FITC). […] Image-J software was used to quantify the Fibrillin 1 fibre abundance and coverage in each image using a threshold of 235 measuring the fibre density.
Results are expressed as an average percentage increase in fibrillin abundance compared to untreated control.

## Pal-GPKG-OH
  Fibrillin 1 (average percentage increase in fibrillin abundance compared to untreated control): +131%^a

## Pal-LSVD-OH
  Fibrillin 1 (average percentage increase in fibrillin abundance compared to untreated control): +185%^a
